Reference: patent publication US20100120902A1, “STANDARIZED BIOACTIVE HERBAL EXTRACTS” (RANBAXY LABORATORIES LIMITED, priority 2007, published 2010)
Values after ≈ are worked out from the molar mass of the structure shown.

Experiments:
supernatant cells = assay: Cell viability/toxicity test (MTT assay); type: cell-based
Experimental: Viability of cells was analyzed using (3-4,5-dimethylthiazol-2-yl)-2,5-diphenyl-tetrazolium bromide (MTT) assay (Mosmann T, J Immunol. Meth., 65 (1983), 55-63) with supernatant cells by adding 0.1 mL of MTT (0.25 mg/mL) with 0.1 mL of supernatant cells. The cells were incubated at 37° C. for about 2-4 hours, and then the optical density was measured at 490-650 nm.

[1] = tested on: LTB4 release from neutrophils; assay: In-vitro leukotriene B4 (LTB4) release assay (A23187, ELISA); type: cell-based; conditions: Homo sapiens, Neutrophil; A23187 stimulated
Experimental: Neutrophils were isolated from freshly drawn human blood after dextran sedimentation and ficoll separation [Hatzelmann and Ullrich, Eur. J. […] Ca^++/Mg^++ (0.25 mM) was added, 3 minutes before the end of incubation with these test samples. Then, 0.3 μg/ml of A23187 (Calcimycin) was added and incubated for further 10 minutes. The reaction was stopped by adding 80 μl of cold methanol and mixture was spun at 3500 rpm for 10 minutes to remove cell debris. The samples were analyzed for LTB4 assay [Hatzelmann and Schudt, J. Pharmacol. Exp. […] (2001), 267-279] using LTB4 ELISA kits (Assay Design Inc., USA). The amount of LTB4 was quantified and percent inhibition in LTB4 release was calculated with respect to control (without test sample) to compute IC50 values.

[2] = tested on: PBM cells (peripheral blood mononuclear cells); assay: In-vitro mitogen induced lymphocyte proliferation assay (3H-thymidine uptake); type: cell-based; conditions: Homo sapiens, PBMC; 20 μg/ml
Experimental: Blood (20 ml) was collected from healthy volunteers in a […] 10 ml of lymphoprep (Nycomed pharma, AS) and centrifuged at 1800 rpm for 30 minutes at 23° C., mononuclear cell containing buffy layer was transferred to another tube and washed three times with PBS (phosphate buffered saline) and centrifuged at 1500 rpm for 15 minutes. […] PBM cells were adjusted to a concentration of 1×10^6 cells/ml in RPMI buffer (Biochrom AG) and 2×10^5 cells/well were seeded in a total volume of 200 μl to a 96 well U bottom plate. […] Cultures were incorporated with 0.5 μCi[3H], 18 hours before the completion of incubation and cells were harvested on glass fiber filter using multi-well harvester and thymidine uptake was determined by measuring radioactivity on liquid scintillation counter and the mean count per minute (CPM) of triplicate was calculated.

[3] = tested on: TNF-α, IL-1β and iNOS mRNA expression in RAW 264.7 cells; assay: In-vitro effect on gene expression of inflammatory mediators (semi-quantitative RT-PCR); type: cell-based, mouse; conditions: 12 hrs incubation
[4] = tested on: IL-1β release from PBM cells; assay: In-vitro IL-1β release inhibition assay from PBMCs (LPS, ELISA); type: cell-based; conditions: Homo sapiens, PBMC; LPS stimulated PBM cells; read-out: IC50 against IL-1β release
Experimental: (§1) Blood (20 ml) was collected from healthy volunteers in a heparanised vial with 10 ml of lymphoprep (Nycomed pharma, AS) and centrifuged at 1800 rpm for 30 minutes at 23° C., mononuclear cell containing buffy layer was transferred to another tube and washed three times with PBS (phosphate buffered saline) and centrifuged at 1500 rpm for 15 minutes. Pellet cells were resuspended in 2 ml of RPMI-1640 medium (Biochrom, AG) supplemented with 25 mM HEPES [N-(2-hydroxyethyl)piperazine-N′-(2-ethanesulfonic acid)], L-glutamine (2 mM), penicillin (100 U/ ml), streptomycin (100 μg/ml) and 10% inactivated FCS (fetal calf serum) and, finally viable cells were counted.
(§2) PBM cells were adjusted to 1×10^6 cells/ml number in RPMI 1640 medium, (Biochrom AG) and 100 μl volume of this cell suspension per well was plated in a 96 well plate. […] Twenty μl of DMSO control and each concentration of these prepared test samples were added to corresponding wells in a 96 well plate. The plate was incubated for 30 minutes at room temperature on rotatory shaker at 200 rpm and 50 μl of lipopolysacchride (LPS) (4 μg/ml) was added to each well, except negative LPS control wells. […] A dose response curve was generated with different concentrations of test sample and the IC50 was calculated using Graph Pad Prism. […]

[5] = tested on: TNF-α release from PBM cells; assay: In-vitro TNF-α release inhibition assay from PBMCs (LPS, ELISA); type: cell-based; conditions: Homo sapiens, PBMC; LPS stimulated PBM cells
Experimental: as §1, §2

[6] = tested on: LPS induced TNF-α release (plasma); assay: Anti-inflammatory efficacy against endotoxemia; type: in vivo, female Balb/C mice; conditions: 10 mg/kg oral
From the text: One hour later, animals were challenged with LPS (lipopolysacchride). Ninety minutes later, blood was collected and TNF-α was estimated in the plasma using ELISA kit and values for each treatment group was expressed as mean±SEM. Comparison was made with control group using one-way ANOVA followed by Dunnett's multiple test and a p≦0.05 was considered statistically significant.

[7] = tested on: formalin induced Phase I and Phase II pain; assay: Analgesic efficacy against formalin test; type: in vivo, mice; conditions: 10 mg/kg i.p.
Experimental: Thirty minutes later, formalin solution (1% w/v, 25 μL/mice) was injected subplantarly in mice and immediately after injection, duration of mice licking or flicking of the injected paw was recorded for a period of 30 minutes in 5 minute slots. The first five minutes duration constitutes Phase-I pain which is centrally mediated while Phase-II pain which lasts from 10-30 minutes is peripherally mediated pain. Values of each group were expressed as mean±SEM (standard error of mean) and comparison was made with control group using one-way ANOVA followed by Dunnett's multiple test and a p≦0.05 was considered statistically significant.

[8] = tested on: carrageenan induced paw edema; assay: Anti-inflammatory efficacy against carrageenan induced paw edema model; type: in vivo, rats; conditions: 5 mg/kg oral, 3 hours post carrageenan
Experimental: One hour later, animals were challenged with carrageenan (1% w/v, 100 μL/rat) subplantarly. The paw edema was recorded 3 hours post carrageenan challenge. Data from each group was expressed as mean±SEM. Change in paw edema in treatment group were compared from vehicle control group using one-way ANOVA followed by Dunnett's multiple comparison test. A p≦0.05 was considered statistically significant.

[9] = tested on: CFA induced arthritis (contra-lateral paw volume); assay: Antiarthritic efficacy against CFA induced arthritis model; type: in vivo, Wistar rats; conditions: 0.2 mg/kg/day
Experimental: Wistar rats were injected with 50 μL of 1 mg/ml solution of Complete Freund's adjuvant (CFA) subplantarly. […] The animals showing 0.30-0.40 ml increase in paw volume of the contralateral paw from the basal were included in the study.
The test sample or vehicle (polyethylene glycol+water 20:80) was administered in two divided doses for 10 days. The paw volume of the animals was recorded on the alternate days. A plot of change in paw volume from day 0 was made and area under the curve (AUC) was calculated using GraphPad Prism software (GraphPad Software Inc, USA, Version 4) for each animal and was averaged in each treatment group.

[10] = tested on: carrageenan induced hyperalgesia; assay: Analgesic efficacy against carrageenan induced hyperalgesia; type: in vivo, wistar rats; conditions: 5 mg/kg oral, after 2 hours
CFA induced hyperalgesia = assay: Antihyperalgesic activity against Complete Freund's adjuvant (CFA) induced hyperalgesia; type: in vivo, rats; conditions: 5 mg/kg oral, 2 hours post treatment
Experimental: Basal weight bearing threshold of the rats was determined using Randall Selitto analgesiometer (Ugo Basile, Italy) followed by challenge with Complete Freund's adjuvant (a suspension of desiccated Mycobacterium butyricum in a mixture of paraffin oil and an emulsifying agent, mannide monooleate; 50 μL of 500 μg/ml suspension/animal), injected subplantarly. Twenty four hours later weight-bearing threshold of the animals was recorded as pre-dose values at time 0 hours. […] Two hours post treatment, weight-bearing threshold of the animals was recorded again. […] One group was treated with Incomplete Freund's adjuvant (IFA) and served as negative control group.

[11] = tested on: CFA induced arthritis in ankle joint; assay: Histopathological analysis of CFA induced arthritis in ankle joint; type: in vivo, Wistar rats
Experimental: At the end of the study (p), animals were euthanized and ankle joints of contra-lateral hind limb were collected for histopathological evaluation Ankle joints were evaluated for the effect on synovial proliferation, inflammation of soft tissues, pannus formation and erosion of cartilage as well as bone (FIG. 13). The changes observed were scored as 0=no change, 1 mild, 2=moderate, 3=marked and 4=severe. The scores for each parameter mentioned above were summed to obtain total histopathological score for each animal.

[12] = tested on: TNF-α production in human PBMCs; conditions: lipo-polysaccharide induced; Pandey et al 2005; cited from earlier work
[13] = tested on: IL-2 production in human PBMCs; conditions: phytohemagglutinin stimulated; Pandey et al 2005; cited from earlier work
[14] = tested on: nuclear factor-(kappa)B and transcription factor AP-1; conditions: Pandey et al 2005; cited from earlier work

With `Cc1c(O)cc2oc3c(c(=O)c2c1O)-c1ccccc1OC3O` (centres unmarked) [Boeravinone B] the “concentration at 50% viability of tested cells” value (supernatant cells) was 64.5 µg/mL, the IC50 [1] was greater than 100 µg/mL and the inhibition at 20 µg/mL [2] was 66%. For the same compound, the “expression of TNF-α, IL-1β and iNOS” value [3] was “down regulated all the 3 inflammatory mediators”, the IC50 [4] was 3.6 µg/mL (≈ 11.5 µM) and the IC50 [5] was 6.8 µg/mL (≈ 21.8 µM).

For `O=c1ncn2nc(Sc3ccc(F)cc3F)ccc2c1-c1c(Cl)cccc1Cl` [Vx745], the “inhibition of LPS response (TNF-α)” value [6] was 59%.

In the case of `CC(C)=CCN1CCC2(C)c3cc(O)ccc3CC1C2C` (centres unmarked) [Pentazocin], the “percent protection in Phase-I pain” value [7] is reported as 40% and the “percent protection in Phase-II pain” value [7] is reported as 50%.

For `Cc1c(O)cc2oc3c(c(=O)c2c1O)-c1ccc(O)cc1OC3O` (centres unmarked) [Boeravinone E], the “concentration at 50% viability of tested cells” value (supernatant cells) was 81.5 µg/mL, the IC50 [1] was 21.8 µg/mL (≈ 66.4 µM) and the inhibition at 20 µg/mL [2] was 59%. The “expression of TNF-α, IL-1β and iNOS” value [3] was “down regulated all the 3 inflammatory mediators”, the IC50 [4] was 7 µg/mL (≈ 21.3 µM) and the IC50 [5] was 7 µg/mL (≈ 21.3 µM).

For `COc1ccc2c(c1)c(CC(=O)O)c(C)n2C(=O)c1ccc(Cl)cc1` [Indomethacin], the “inhibition of carrageenan induced paw edema” value [8] was 48%, the paw edema [9] was “reversal of the paw edema toward basal level” and the “inhibition (carrageenan induced hyperalgesia)” value [10] was 66%. The “reversal of the hyperalgesia induced by CFA” value (CFA induced hyperalgesia) was 64%, the “% inhibition (histopathological score)” value ([11]; 0.2 mg/kg) was 62.8% and the “recruitment of inflammatory cells” value ([11]; 0.2 mg/kg/day, FIG. 13 A) was “completely prevented the recruitment of inflammatory cells”. For the same compound, the Pannus formation ([11]; 0.2 mg/kg/day, FIG. 13 B) was “mild” and the “inhibitory effect on cartilage degradation” value ([11]; 0.2 mg/kg/day, FIG. 13 C) was “prominent”.

In the case of `COc1cc2oc(-c3ccc(O)cc3)c(OC3OC(CO)C(O)C(O)C3O)c(=O)c2c(O)c1OC` [Bd-I, eupalitin-3-O-beta-D-galactopyranoside], the TNF-α production [12] is given as “inhibited”, the “production of IL-2 at the protein and mRNA transcript levels” value [13] is given as “inhibited” and the “activation of DNA binding of nuclear factor-(kappa)B and AP-1” value [14] is given as “block the activation of DNA binding”.
